Test results taken from patent publication US12410163B2, “Compounds as GLP-IR agonists” (Terns Pharmaceuticals, Inc., priority 2022, dated 2025).

How the values were obtained:
[1] = Metabolic stability in hepatocytes; assay type: in vitro ADME; settings: cryopreserved human hepatocytes (suspension), 1×10^6 cells/mL; for half-life at 1 μM: 0-240 min, read-out: hHep t1/2; for CLint scaled at 1 μM: intrinsic clearance, read-out: hHep CLint
Procedure: Test compounds are incubated in human hepatocytes and stability is assessed from the substrate […] approach. Test compounds are dissolved in dimethyl sulfoxide (DMSO) to create a 10 mM Stock, and then further diluted to create a 1000× Working Stock of 1 mM with DMSO in 96-well plates for test compounds and the positive control (midazolam). Vials containing cryopreserved hepatocytes are removed from the liquid nitrogen tank and immediately immersed in a 37° C. water bath. The vials are shaken gently until the contents had thawed and were then immediately emptied into 48 mL of pre-warmed HT Medium in a 50 mL conical tube. Cells remaining in the vial are resuspended with 1.0 mL of pre-warmed HT Medium and added to the conical tube. The tube is capped and then gently inverted several times to resuspend the hepatocytes. The cell suspension is centrifuged at 50×g at room temperature for 5 minutes and the supernatant discarded. The cell pellet is loosened by gently swirling the centrifuge tube and is re-suspended in 4 mL of warm Dulbecco's Modified Eagle medium (DMEM). Cell density is determined by a cell counter by Nexcelom, and DMEM medium is added to obtain a target density of 1×10^6 cells/mL. The assay is carried out in 96-well microtiter plates. Test Compounds are incubated at 1 μM with 1×10^6 cells/mL hepatocytes in DMEM for 0, 30, 60, 120 and 240 minutes. The incubation is carried out with gentle shaking at 37° C. under a humid atmosphere of 95% air/5% CO2. The volume of the incubation mixture is 37 μL with a final 0.1% DMSO. At each of the time points, the incubation is stopped by adding 150 μL quenching solution (100% acetonitrile, 0.1% formic acid containing bucetin as an internal standard for positive ESI mode). Subsequently, the mixtures are vortexed for 20 min and centrifuged at 4,000 RPM at 10° C. The supernatant (80 μL) is transferred to a clean 96-well plate and analyzed by LC-MS/MS. Midazolam at 1 μM with a final 0.1% DMSO is included as a positive control to verify assay performance. The percent parent remaining, intrinsic and predicted hepatic clearance and t1/2 are calculated. All samples are analyzed by LC-MS/MS using an AB Sciex API 4000 instrument, coupled to a Shimadzu LC-20AD LC Pump system. Separation is achieved using a Waters Atlantis T3 dC18 reverse phase HPLC column (20 mm×2.1 mm) at a flow rate of 0.5 mL/min. The mobile phase consisted of 0.1% formic acid in water (solvent A) and 0.1% formic acid in 100% acetonitrile (solvent B). Elution conditions are detailed below.
The ion optics of each test compound are optimized for their declustering potential (DP), […] (CE), collision-cell exit potential (CXP) and used in a selected ion monitoring experiment in the positive ion mode. The peak area ratio of each test compound to internal standard is then evaluated for stability. The extent of metabolism is calculated based on the disappearance of the test compound, compared to its initial concentration. The initial rates of clearance of the test compound are calculated using the linear regression plot of semi-log % remaining of the compound versus time. The elimination rate constant (k) of the linear regression plot is then used to determine t1/2 and the intrinsic clearance (CLint) using the following formula, where Chepatocyte (million cells/mL) is the cell density of the incubation: k=−slope t1/2=0.693/k CLint=k/Chepatocyte
Test compounds were incubated in human hepatocytes and stability was assessed from the substrate […] approach. Test compounds were dissolved in dimethyl sulfoxide (DMSO) to create a 10 mM Stock, and then further diluted to create a 1000× Working Stock of 1 mM with DMSO in 96-well plates for test compounds and the positive control (midazolam). Vials containing cryopreserved hepatocytes were removed from the liquid nitrogen tank and immediately immersed in a 37° C. water bath. […]

[2] = Rat pharmacokinetics; assay type: in vivo; parameters: AUC: concentration or dose not given beside the values; settings: male Sprague-Dawley rats, plasma, route not given; for half-life: read-out: Rat T1/2 (converted)
Procedure: Intravenous dosing: Compounds were formulated at 0.5 mg/mL in a solution comprising 5% polyethylene glycol 400 and 95% (12% (w/v) sulfobutyl-β-cyclodextrin in water) (v/v). Formulated compounds were sterile filtered through a 0.22 micron filter before dosing. Compounds were administered to male, 7-11-week-old Sprague-Dawley rats by jugular vein cannula infusion over 30 minutes at a dose of 1 mg/kg. […]
Sample collection: Blood collections of about 0.2 mL per time point were performed from jugular vein or other suitable site of each animal, into pre-chilled commercial EDTA-K2 tubes and placed on wet ice until centrifugation. Blood samples were processed for plasma by centrifugation at approximately 4° C., 3,200 g for 10 min. Plasma was collected and transferred into pre-labeled 96 well plate or polypropylene tubes, quick frozen over dry ice and kept at −60° C. or lower until LC-MS/MS analysis.
Data analysis: Plasma concentration versus time data was plotted in graph and analyzed by non-compartmental approaches using the Phoenix WinNonlin 6.3 software program. Related PK parameters were calculated according to dosing route, e.g., CL, Vdss and C0 for intravenous administration, Cmax, Tmax or % F for extravascular administration, and T1/2, AUC(0-t), AUC(0-inf), MRT(0-t), MRT(0-inf) for all routes.

[3] = Rat pharmacokinetics; assay type: in vivo; settings: male Sprague-Dawley rats, plasma, route not stated in table (IV or oral gavage 10 mL/kg of 0.3 or 0.6 mg/mL)

Row | SMILES | half-life at 1 μM [1] | CLint scaled at 1 μM [1] | AUC [2] | half-life [2] | Cmax [3]
1 | N#Cc1ccc(COc2cccc(N3CCN(Cc4nc5ccc(C(=O)O)cc5n4Cc4cncs4)[C@H]4C[C@H]43)n2)c(F)c1 (single isomer, unassigned) [Compound 2, 2-((5-(6-((4-Cyano-2-fluorobenzyl)oxy)pyridin-2-yl)-2,5-diazabicyclo[4.1.0]heptan-2-yl)methyl)-1-(thiazol-5-ylmethyl)-1H-benzo[d]imidazole-6-carboxylic Acid] | – | 5.01 mL/min/kg | 63.5 ± 11.1 ng·h/mL | 2.41 h | 44.1 ± 6.5 ng/mL
2 | N#Cc1ccc(COc2cccc([C@H]3CCN(Cc4nc5ccc(C(=O)O)cc5n4Cc4cncs4)[C@@H]4C[C@H]34)n2)c(F)c1 (single isomer, unassigned) [Compound 4, 2-((5-(6-((4-Cyano-2-fluorobenzyl)oxy)pyridin-2-yl)-2-azabicyclo[4.1.0]heptan-2-yl)methyl)-1-(thiazol-5-ylmethyl)-1H-benzo[d]imidazole-6-carboxylic Acid] | 2.87 h | 14 mL/min/kg | 86.3 ± 27.2 ng·h/mL | 0.92 h | 70 ± 32 ng/mL
3 | N#Cc1ccc(COc2cccc([C@@H]3CCN(Cc4nc5ccc(C(=O)O)cc5n4Cc4cncs4)[C@@H]4C[C@@H]43)n2)c(F)c1 (single isomer, unassigned) [Compound 5, 2-((5-(6-((4-Cyano-2-fluorobenzyl)oxy)pyridin-2-yl)-2-azabicyclo[4.1.0]heptan-2-yl)methyl)-1-(thiazol-5-ylmethyl)-1H-benzo[d]imidazole-6-carboxylic Acid] | 5.37 h | 7.46 mL/min/kg | 418 ± 49.6 ng·h/mL | 1.31 h | 282 ± 4.04 ng/mL
4 | N#Cc1ccc(COc2cccc([C@H]3CCN(Cc4nc5ccc(C(=O)O)cc5n4Cc4cncs4)[C@H]4C[C@@H]34)n2)c(F)c1 (single isomer, unassigned) [Compound 14, 2-((5-(6-((4-Cyano-2-fluorobenzyl)oxy)pyridin-2-yl)-2-azabicyclo[4.1.0]heptan-2-yl)methyl)-1-(thiazol-5-ylmethyl)-1H-benzo[d]imidazole-6-carboxylic Acid] | 5.1 h | 7.86 mL/min/kg | 66.8 ± 7.06 ng·h/mL | 0.645 h | 59.3 ± 5.68 ng/mL
5 | N#Cc1ccc(COc2cccc(N3CCN(Cc4nc5ccc(C(=O)O)cc5n4C[C@@H]4CCO4)[C@@H]4C[C@@H]43)n2)c(F)c1 (single isomer, unassigned) [Compound 43] | 5.65 h | 7.09 mL/min/kg | 118 ± 10 ng·h/mL | 1.19 h | 64.5 ± 17.8 ng/mL
6 | N#Cc1ccc(COc2ccnc(N3CCN(Cc4nc5ccc(C(=O)O)cc5n4Cc4cncs4)[C@@H]4C[C@@H]43)n2)c(F)c1 [Compound 20, 2-((5-(4-((4-Cyano-2-fluorobenzyl)oxy)pyrimidin-2-yl)-2,5-diazabicyclo[4.1.0]heptan-2-yl)methyl)-1-(thiazol-5-ylmethyl)-1H-benzo[d]imidazole-6-carboxylic Acid] | 6.27 h | 6.4 mL/min/kg | 22.9 ± 30 ng·h/mL | 0.578 h | 15.5 ± 7.15 ng/mL
7 | CC1(c2ccc(C#N)cc2F)Oc2cccc(N3CCN(Cc4nc5ccc(C(=O)O)cc5n4CC4(C#N)CC4)C4CC43)c2O1 (centres unmarked) [Compound 40, 2-((5-(2-(4-Cyano-2-fluorophenyl)-2-methylbenzo[d][1,3]dioxol-4-yl)-2,5-diazabicyclo[4.1.0]heptan-2-yl)methyl)-1-((1-cyanocyclopropyl)methyl)-1H-benzo[d]imidazole-6-carboxylic Acid] | 6.85 h | 5.86 mL/min/kg | 44.2 ± 8.62 ng·h/mL | 2.78 h | 28.3 ± 6.42 ng/mL

Next, values leading:

Row | half-life at 1 μM [1] | CLint scaled at 1 μM [1] | AUC [2] | half-life [2] | Cmax [3] | SMILES
8 | 3.36 h | 11.9 mL/min/kg | 71.8 ± 90.3 ng·h/mL | 4.58 h | 34.7 ± 13.7 ng/mL | N#Cc1ccc(COc2cccc(N3CCN(Cc4nc5ccc(C(=O)O)cc5n4Cc4cncs4)[C@@H]4C[C@@H]43)n2)c(F)c1 (single isomer, unassigned) [Compound 1, 2-((5-(6-((4-cyano-2-fluorobenzyl)oxy)pyridin-2-yl)-2,5-diazabicyclo[4.1.0]heptan-2-yl)methyl)-1-(thiazol-5-ylmethyl)-1H-benzo[d]imidazole-6-carboxylic Acid]
9 | 4.33 h | 9.24 mL/min/kg | 71.7 ± 16.1 ng·h/mL | 0.597 h | 77.4 ± 16.2 ng/mL | N#Cc1ccc(COc2cccc([C@@H]3CCN(Cc4nc5ccc(C(=O)O)cc5n4Cc4cncs4)[C@H]4C[C@@H]34)n2)c(F)c1 (single isomer, unassigned) [Compound 15, 2-((5-(6-((4-Cyano-2-fluorobenzyl)oxy)pyridin-2-yl)-2-azabicyclo[4.1.0]heptan-2-yl)methyl)-1-(thiazol-5-ylmethyl)-1H-benzo[d]imidazole-6-carboxylic Acid]
10 | 0.23 h | 17.5 mL/min/kg | 84.9 ± 32.2 ng·h/mL | 0.89 h | 89.5 ± 23.6 ng/mL | CC1(c2ccc(C#N)cc2F)Oc2cccc(C3CCN(Cc4nc5ccc(C(=O)O)cc5n4Cc4cncs4)CC3)c2O1 (centres unmarked) [Compound 18]
11 | 6.2 h | 6.46 mL/min/kg | 9.48 ng·h/mL | – | 9.62 ng/mL | CCn1nncc1Cn1c(CN2CCN(c3cccc(OCc4ccc(C#N)cc4F)n3)[C@H]3C[C@H]32)nc2ccc(C(=O)O)cc21 [Compound 45, 2-((5-(6-((4-Cyano-2-fluorobenzyl)oxy)pyridin-2-yl)-2,5-diazabicyclo[4.1.0]heptan-2-yl)methyl)-1-((1-ethyl-1H-1,2,3-triazol-5-yl)methyl)-1H-benzo[d]imidazole-6-carboxylic Acid]
